According to patent EP1213282A1, “Substituted imidazolium salts and their use for the inhibition of protein ageing” (ALTEON Inc., priority 1996, dated 1997):
Like-named read-outs stand apart in the source and are kept apart here.

Legend:
[1] = molecular target: T1, cross-linking of glycated bovine serum albumin (AGE-BSA) to the rat tail tendon collagen (Bos taurus, UniProt P02769); assay: Inhibition of cross-linking of glycated BSA (AGE-BSA) to collagen-coated plate, ELISA (Example 4); format: biochemical; conditions: for inhibition at 10000 µM: 4 h
T1 construct: The AGE-BSA was prepared by incubating BSA at a concentration of 200 mg per ml with 200 mM glucose
T1 sequence (P02769 25-607): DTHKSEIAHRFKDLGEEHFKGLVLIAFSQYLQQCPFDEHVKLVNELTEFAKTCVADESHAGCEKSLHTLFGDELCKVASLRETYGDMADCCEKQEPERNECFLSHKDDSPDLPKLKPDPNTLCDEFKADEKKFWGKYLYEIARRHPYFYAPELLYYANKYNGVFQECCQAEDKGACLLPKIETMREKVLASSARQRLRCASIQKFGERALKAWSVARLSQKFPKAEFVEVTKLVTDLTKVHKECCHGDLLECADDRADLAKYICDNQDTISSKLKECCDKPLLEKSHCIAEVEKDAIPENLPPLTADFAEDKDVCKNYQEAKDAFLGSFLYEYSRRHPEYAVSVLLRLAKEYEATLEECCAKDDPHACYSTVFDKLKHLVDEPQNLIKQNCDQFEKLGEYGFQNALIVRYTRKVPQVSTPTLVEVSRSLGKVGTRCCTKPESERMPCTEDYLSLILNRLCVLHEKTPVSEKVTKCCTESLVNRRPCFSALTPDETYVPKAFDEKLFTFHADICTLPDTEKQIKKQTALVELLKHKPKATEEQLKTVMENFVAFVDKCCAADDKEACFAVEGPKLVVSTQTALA
Protocol: The following method was used to evaluate the ability of the compounds of the present invention to inhibit the cross-linking of glycated bovine serum albumin (AGE-BSA) to the rat tail tendon collagen coated 96-well plate.
The glycated BSA was then extensively dialyzed against phosphate buffer solution (PBS) for 48 hours with additional 5 times buffer exchanges. […] The blocking solution was removed from the wells by washing the plate twice with PAS-Tween 20 solution (0.05% Tween 20) using a NUNC-multiprobe or Dynatech ELISA-plate washer. […] The unbrowned BSA in PBS buffer with or without testing compound were added to the separate wells as the blanks. The uncross-linked AGE-BSA was then removed by washing the wells three times with PBS-Tween buffer. The cross-linked AGE-BSA to the tail tendon coated plate was then quantitated by the polyclonal antibody raised against AGE-RNase. After a one-hour incubation period, AGE antibody was removed by washing 4 times with PBS-Tween.
The bound AGE antibody was then detected with the addition of horseradish peroxidase-conjugated secondary antibody, e.g., goat anti-rabbit immunoglobulin and incubation for 30 minutes. […] The reaction was allowed for an additional 15 minutes and the absorbance was read at 410 nm in a Dynatech plate reader.

[2] = molecular target: T2, AGE-BSA previously crosslinked to the collagen (Bos taurus, UniProt P02769); assay: AGE cross-link breaking sandwich enzyme immunoassay (Example 6); format: biochemical; conditions: 10 mM, 16 hours, 37°C
T2 construct: purchased Calbiochem (BSA Type V); Collaborative Biomedical Products (Biocoat collagen plates)
T2 sequence (P02769 25-607): as above
T2 sequence (P02454 152-1207 partner limits assumed): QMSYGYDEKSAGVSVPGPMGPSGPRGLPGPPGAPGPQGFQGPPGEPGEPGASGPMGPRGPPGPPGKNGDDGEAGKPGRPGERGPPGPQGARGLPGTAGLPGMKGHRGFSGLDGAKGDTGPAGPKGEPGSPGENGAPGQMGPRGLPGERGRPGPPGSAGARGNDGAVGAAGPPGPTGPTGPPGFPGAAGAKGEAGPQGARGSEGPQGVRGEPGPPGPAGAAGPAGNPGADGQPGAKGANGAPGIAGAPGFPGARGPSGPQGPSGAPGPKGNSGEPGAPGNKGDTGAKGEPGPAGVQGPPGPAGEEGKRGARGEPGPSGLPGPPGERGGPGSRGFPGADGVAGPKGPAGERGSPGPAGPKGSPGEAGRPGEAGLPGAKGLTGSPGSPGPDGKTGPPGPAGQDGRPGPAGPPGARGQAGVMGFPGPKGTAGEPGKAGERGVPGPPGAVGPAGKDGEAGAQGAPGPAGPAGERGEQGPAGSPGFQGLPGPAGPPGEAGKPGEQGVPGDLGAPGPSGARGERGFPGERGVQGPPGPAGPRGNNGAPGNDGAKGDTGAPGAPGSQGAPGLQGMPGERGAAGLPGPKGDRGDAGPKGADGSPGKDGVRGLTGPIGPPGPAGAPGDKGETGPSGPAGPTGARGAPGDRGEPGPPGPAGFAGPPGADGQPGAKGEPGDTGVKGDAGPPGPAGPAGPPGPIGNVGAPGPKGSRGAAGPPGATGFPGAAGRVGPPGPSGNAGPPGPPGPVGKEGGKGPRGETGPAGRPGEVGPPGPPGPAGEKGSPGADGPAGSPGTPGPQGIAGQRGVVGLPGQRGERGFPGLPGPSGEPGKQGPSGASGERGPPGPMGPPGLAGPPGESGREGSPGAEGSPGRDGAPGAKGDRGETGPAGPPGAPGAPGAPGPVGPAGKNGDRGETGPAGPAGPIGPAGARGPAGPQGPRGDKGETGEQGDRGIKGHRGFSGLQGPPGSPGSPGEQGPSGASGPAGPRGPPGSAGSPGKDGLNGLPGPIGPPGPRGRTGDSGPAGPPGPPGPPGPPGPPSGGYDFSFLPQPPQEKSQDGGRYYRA
T2 sequence (P02466 86-1125 partner limits assumed): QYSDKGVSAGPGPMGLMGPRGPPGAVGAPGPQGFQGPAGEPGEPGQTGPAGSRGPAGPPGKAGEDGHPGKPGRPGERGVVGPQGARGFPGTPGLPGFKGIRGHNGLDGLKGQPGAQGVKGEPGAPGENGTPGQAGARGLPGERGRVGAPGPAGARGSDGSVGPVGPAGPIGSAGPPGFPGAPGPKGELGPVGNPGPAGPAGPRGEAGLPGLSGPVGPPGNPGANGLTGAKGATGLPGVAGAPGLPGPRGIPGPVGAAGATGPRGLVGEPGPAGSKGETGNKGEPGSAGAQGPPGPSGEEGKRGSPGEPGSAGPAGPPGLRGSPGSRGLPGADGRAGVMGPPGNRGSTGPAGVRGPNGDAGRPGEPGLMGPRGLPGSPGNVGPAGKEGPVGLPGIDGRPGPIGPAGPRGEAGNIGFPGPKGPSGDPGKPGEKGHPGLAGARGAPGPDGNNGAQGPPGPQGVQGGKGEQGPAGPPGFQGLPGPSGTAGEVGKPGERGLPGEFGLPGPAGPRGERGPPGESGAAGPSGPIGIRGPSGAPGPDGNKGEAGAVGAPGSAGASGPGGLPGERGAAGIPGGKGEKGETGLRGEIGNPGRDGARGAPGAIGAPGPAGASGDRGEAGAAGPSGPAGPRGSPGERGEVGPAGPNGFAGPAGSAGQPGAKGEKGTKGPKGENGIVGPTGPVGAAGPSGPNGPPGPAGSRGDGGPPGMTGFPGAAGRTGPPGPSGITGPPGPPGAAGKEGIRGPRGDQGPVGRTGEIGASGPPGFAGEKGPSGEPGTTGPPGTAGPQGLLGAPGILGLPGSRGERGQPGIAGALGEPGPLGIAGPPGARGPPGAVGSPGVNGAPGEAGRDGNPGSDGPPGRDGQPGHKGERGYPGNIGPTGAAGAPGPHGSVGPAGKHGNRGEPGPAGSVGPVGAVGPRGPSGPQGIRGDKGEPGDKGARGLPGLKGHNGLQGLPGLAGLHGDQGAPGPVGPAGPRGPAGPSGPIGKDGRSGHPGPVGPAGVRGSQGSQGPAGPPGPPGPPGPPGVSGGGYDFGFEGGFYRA
Protocol: In order to ascertain the ability of the compounds of the instant invention to "break" or reverse already formed advanced glycosylation endproducts, a novel sandwich enzyme immunoassay was developed which detects breaking of AGE (Advanced glycosylation endproduct) moieties from AGE-crosslinked protein. The assay utilizes collagen-coated 96 well microtiter plates that are obtained commercially. AGE-modified protein (AGE-BSA), prepared, for instance, as in Example 8, above, is incubated on the collagen-coated wells for four hours, is washed off the wells with PBS-Tween and solutions of the test compounds are added. Following an incubation period of 16 hours (37°C) cross-link-breaking is detected using an antibody raised against AGE-ribonuclease or with an antibody against BSA. Positive results in this assay indicate compounds that are capable of reducing the amount of AGE-BSA previously crosslinked to the collagen by breaking the crosslinks and allowing the liberated material to be flushed away in subsequent washing steps. Details of the assay are as follows:
• 1. AGE-BSA stock solutions were prepared as follows. Sodium phosphate buffer (0.4 M) was prepared by dissolving 6 grams of monobasic sodium phosphate in 100 ml of distilled water, 7 grams of dibasic sodium phosphate (0.4 M) in 100 ml of distilled water and adjusting the pH of the dibasic solution to 7.4 with the monobasic solution. Sodium azide (0.02 grams) was added per 100 ml volume to inhibit bacterial growth. The BSA solution was prepared as follows: 400 mg of Type V BSA (bovine serum albumin) was added for each ml of sodium phosphate buffer (above). A 400 mM glucose solution was prepared by dissolving 7.2 grams of dextrose in 100 ml of sodium phosphate buffer (above). The BSA and glucose solutions were mixed 1:1 and incubated at 37°C for 12 weeks. The pH of the incubation mixture was monitored weekly and adjusted to pH 7.4 if necessary. After 12 weeks, the AGE-BSA solution was dialyzed against PBS for 48 hours with four buffer changes, each at a 1:500 ratio of solution to dialysis buffer. Protein concentration was determined by the micro-Lowry method. The AGE-BSA stock solution was aliquoted and stored at -20°C. Dilute solutions of AGE-BSA were unstable when stored at -20°C. • 2. Working solutions for crosslinking and breaking studies were prepared as follows. Test compounds were dissolved in PBS and the pH was adjusted to pH 7.4 if necessary. AGE-BSA stock solution was diluted in PBS to measure maximum crosslinking. The concentration of AGE-BSA necessary to achieve the optimum sensitivity was determined by initial titration of each lot of AGE-BSA. • 3. Wash buffer ("PBS-Tween") was prepared as follows. PBS was prepared by dissolving the following salts in one liter of distilled water: NaCl, 8 grams; KCl, 0.2 gram, KH2PO4. 1.15 grams; NaN3, 0.2 gram. Tween-20 was added to a final concentration of 0.05% (vol/vol). • 4. Substrates for detection of secondary antibody binding were prepared by diluting the HRP substrate buffer 1:10 in distilled water and mixing with ABTS chromogen 1:50 just prior to use.
• 1. Biocoat plates were blocked with 300 µl of "Superbloc". Plates were blocked for one hour at room temperature and were washed with PBS-Tween three times with the Dynatech platewasher before addition of test reagents. • 2. Each experiment was set up in the following manner. The first three wells of the Biocoat plate were used for the reagent blank. Fifty microliters of solutions AGE-BSA were added to test wells in triplicate and only PBS in blank wells. The plate was incubated at 37°C for four hours and washed with PBS-Tween three times. Fifty microliters of PBS was added to the control wells and 50 µl of the test "AGE Cross-link breaker" compound was added to the test wells and blank. The plate was incubated overnight (approximately 16 hours) with the test "AGE Cross-link breaker" compound, followed by washing in PBS-Tween before addition of primary antibody (below). • 3. […]

[3] = Inhibition of ribose-induced cross-linking of N-acetyl glycyl-lysine methyl ester, fluorescence (Example 5); format: biochemical; conditions: 37°C, 16-24 hours, pH 7.4; fluorescence 350/400 nm
Protocol: Materials: • N-acetylglycyllysine methyl ester (DP in formula below) • Ribose (R in formula below) • Test compounds (C in formula below)
Reagents: • 0.5 M sodium phosphate buffer pH 7.4 • N-acetylglycyllysine methyl ester in 0.5M sodium phosphate buffer, pH 7.4 Ribose: 800 mM
Test compounds dissolved in the above buffer and the pH is adjusted to 7.4, if necessary
Reaction mixtures are prepared as follows:
and incubated at 37°C for 16-24 hours. At the end of the incubation period, the fluorescence is read using an excitation wavelength of 350 nm and emission wavelength of 400 nm. The inhibition of the cross-linking is calculated from the decrease in the fluorescence in the presence of the test compounds according to the formula: […] [formula]
The Inhibition by various test compounds (IC50) is as follows: […]

[4] = system: fixed protein (gelatin. i.e., collagen) surface; assay: Surface browning experiment on gelatin/paper disks (Example 10); conditions: 100 Mm glucose-6-phosphate, one week at 50°C; Peridex at final 0.04% chlorhexidine
Protocol: To further study the ability of inhibitors of nonenzymatic browning to prevent the discoloration of protein on a surface, such as that which occurs on the tooth surface, the following surface browning experiment is performed. As a substitute for a pellicle-covered tooth surface. unexposed and developed photographic paper is used to provide a fixed protein (gelatin. i.e., collagen) surface on a paper backing. Five millimeter circles are punched and immersed for one week at 50°C in a solution of 100 Mm glucose-6-phosphate in a 0.5 M phosphate buffer, pH 7.4, containing 3 Mm sodium azide. Glucose-6-phosphate is a sugar capable of participating in nonenzymatic browning at a more rapid rate than glucose. In addition to the glucose-6-phosphate, chlorhexidine and/or a compound of Formula I are included. After incubation, the gelatin/paper disks are rinsed with water, observed for brown color, and photographed.

[5] = pH 7.4, at 10 mM, 37°C, 4 hours, pH 7.4, read-out: %Inh.
[6] = primary antibody anti-AGE-RNase, read-out: %breaking allowed, Pr AbαAGE
[7] = primary antibody anti-BSA, read-out: %breaking allowed, PrAbαBSA

Row | inhibition at 10000 µM [2, 6] [%] | inhibition at 10000 µM [2, 7] [%] | Compound | inhibition at 10000 µM [1, 5] [%] | further results
1 | – | – | CCOC(=O)CCCCCn1cc[n+](CC(=O)c2cccc(OC)c2)c1 [1-(ethoxycarbonylpentyl)-3-[2-(3'-methoxyphenyl)-2-oxoethyl]-imidazolium bromide] | 40 | –
2 | – | – | CCOC(=O)CCCCCn1cc[n+](CC(=O)c2ccc(OC)cc2)c1 [1-(ethoxycarbonylpentyl)-3-[2-(4'-methoxyphenyl)-2-oxoethyl]-imidazolium bromide] | 23 | %Inh. ([1]; at 10 mM, 37°C, 4 hours, pH 7.4, 240 min, 10000 µM): 40%
3 | – | – | CCOC(=O)CCCCCn1cc[n+](CC(=O)c2ccc(C)cc2)c1 [1-(ethoxycarbonylpentyl)-3-[2-(4'-methylphenyl)-2-oxoethyl]-imidazolium bromide] | 33 | –
4 | 32 | 28 | CCN(CC)c1ccc(C(=O)C[n+]2ccn(C)c2)cc1 [1-Methyl-3-[2-(4'-diethylaminophenyl)-2-oxo-ethyl]-imidazolium bromide] | – | IC50 [3]: 530 µM
5 | 20 | 24 | COc1cccc(C(=O)C[n+]2ccn(C)c2)c1 [1-methyl-3-[2-(3'-methoxyphenyl)-2-oxoethyl]-imidazolium bromide] | – | –
6 | – | – | Cn1cc[n+](CC(=O)c2ccc(Br)cc2)c1 [1-methyl-3-[2-(4'-bromophenyl)-2-oxoethyl]-imidazolium bromide] | – | inhibition at 10000 µM ([1]; pH 7.4, read-out: %Inh.): 23%
7 | – | – | Cn1cc[n+](CC(=O)c2ccc(F)cc2)c1 [1-methyl-3-[2-(4'-fluorophenyl)-2-oxoethyl]-imidazolium bromide] | 29 | –
8 | 38 | 27 | COc1ccc(C(=O)C[n+]2ccn(C)c2)cc1 [1-methyl-3-[2-(4'-methoxyphenyl)-2-oxoethyl]-imidazolium bromide] | – | –
9 | – | – | [H]/N=C(\N/C(=N/[H])NCCCCCCNC(=N)NC(=N)Nc1ccc(Cl)cc1)Nc1ccc(Cl)cc1 [chlorhexidine] | – | brown color of gelatin/paper disks [4]: significant browning
